Data taken from patent US12398109B2, “2-amino-2-(1,2,3-triazole-4-yl)propane-1,3-diol derivative of novel compound for directly inhibiting ASM activity, and use thereof” (KYUNGPOOK NATIONAL UNIVERSITY INDUSTRY-ACADEMIC COOPERATION …, priority 2018, dated 2025).
Each block holds one compound with its values, some of them ahead of it.

Experiments:
[1] = test system: S1P; assay: S1P level in fibroblasts; conditions: normal or Alzheimer's patient fibroblasts, 10 μM
Experimental: (§2) Human fibroblast lines (normal and PS1) were obtained from Coriell Institute and cultured in a DMEM containing 15% FBS at 37° C. and 5% CO2 and used.
(§3) To measure a concentration level of Sphk, 3 μl of the fibroblast sample was mixed with a Sphk activity buffer and stored at 37° C. Subsequently, 54 μl of ethanol was added and the mixture was centrifuged after terminating a hydrolysis reaction. After 30 μl of a supernatant was transferred to a glass vial, 5 μl of the supernatant was applied to a UPLC system. Each Sphk concentration level was quantified using a UPLC system by comparing the Sphk concentration level with NBD bound to sphingosine and S1P. For extraction and quantification of Ceramide and S1P, lipids were extracted from the samples by a known method, and the dried lipid extract was resuspended in 25 μl of 0.2% Igepal CA-630 (Sigma-Aldrich), and the concentration levels of Ceramide and S1P were quantified using the UPLC system.

[2] = test system: Sphk; assay: Sphk activity in fibroblasts; conditions: normal or Alzheimer's patient fibroblasts, 10 μM
Experimental: as §2, §3

[3] = test system: S1P receptor 1 (S1PR1); assay: S1PR1 expression in fibroblasts (Western blot); conditions: normal or Alzheimer's patient fibroblasts, 10 μM
Experimental: Human fibroblast lines (normal and PS1) were obtained from Coriell Institute and cultured in a DMEM containing 15% FBS at 37° C. and 5% CO2 and used. Thereafter, the cell lines were treated with 10 μM of each of the synthesized ASM inhibitory compounds and FTY720 (Cayman), and then changes in ASM activity, Ceramide, S1P, and S1PR1 were measured.
Protein expression of S1PR1 was analyzed using Western blotting. First, antibodies against S1PR1 (abcam) and β-actin (Santa Cruz) were used, and densitometric quantification was performed using ImageJ software (US National Institutes of Health).

[4] = test system: APP/PS1 mouse; assay: Open field test and dark & light test in APP/PS1 mouse; format: in vivo; conditions: SCNPA 100 mg/kg/day, FTY720 1 mg/kg/day
Experimental: (§1) In order to confirm a potential effect on learning and memory, a Morris Water Maze (MWM) test was performed. In the MWM, the mouse learned a task 4 times a day for 10 days, a platform was removed on day 11, and aprobe trial was performed. To evaluate activity and anxiety, an open field test and a dark and light test were performed. In the open field test, the mouse was placed in a quadrangular box for 10 minutes and then overall activity and a time spent to move around a wall side and a center were measured. In the dark and light test, the mouse was placed in a quadrangular box consisting of a dark box and a light box for 10 minutes, and a time staying in each box, the number of reciprocating the boxes, and a time to first enter into a light box were measured.

[5] = in vivo; conditions: mouse, po, 10 mg/kg
[6] = test system: TNF-a, IL-1b, IL-6; assay: mRNA expression of inflammatory cytokines in brain of APP/PS1 mouse (real-time quantitative PCR); format: in vivo; conditions: SCNPA 100 mg/kg/day, FTY720 1 mg/kg/day
Experimental: A real-time quantitative PCR method was used to measure the expression levels of inflammatory response-related cytokines (TNF-α, IL-1b, and IL-6). Total RNA was extracted from the brain tissue using an RNeasy Plus mini kit (Qiagen, Korea, Ltd), and cDNA was synthesized from 5 μg of total RNA using a kit from Clontech Co., Ltd. (Mountain View, CA). In addition, by using a Corbett research RG-6000 real-time PCR instrument, real-time quantitative PCR was performed by setting 95° C., 10 min; 95° C., 10 sec; 58° C., 15 sec; 72° C., 20 sec as one cycle and repeating 40 cycles.

[7] = Brain distribution after oral administration in normal mice; format: in vivo, mouse; conditions: oral 10 mg/kg
[8] = Stability in human liver microsomes; format: in vitro ADME
[9] = test system: astrocytes (GFAP); assay: Astrocytes (GFAP) in brain of APP/PS1 mouse; conditions: SCNPA 100 mg/kg/day, FTY720 1 mg/kg/day
[10] = Stability in mouse liver microsomes; format: in vitro ADME
[11] = test system: amyloid-β deposition; assay: Amyloid-β deposition in medulla and hippocampus of APP/PS1 mouse (ThioS, Aβ40, Aβ42 staining); format: in vivo; conditions: 100 mg/kg/day
Experimental: In order to confirm whether the inhibition of ASM activity by administration of the ASM inhibitory compounds has an effect on Alzheimer's lesions, first, the medulla and hippocampus regions of the mouse were stained with Thioflavin S (ThioS) according to a known method to confirm protofibril amyloid-β deposition. In addition, immunofluorescence staining of Aβ40 and Aβ42 was performed to confirm the amyloid-β deposition.

[12] = test system: APP/PS1 mouse; assay: Morris Water Maze test in APP/PS1 mouse; format: in vivo; conditions: compared to SCNPA101 or FTY720
Experimental: as §1

[13] = Pharmacokinetic test in blood after oral or intravenous administration in normal mice; conditions: mouse, 10 mg/kg

Structure (SMILES): CCCCCCCCc1ccc(CCC(N)(CO)CO)cc1 [FTY720]
- expression of S1P [1]: reduced
- Sphk activity [2]: reduced
- expression of S1PR1 [3]: reduced

- bioavailability [5]: 19.6%
- Kp ([7]; mouse, brain): 3.61
- remaining amount after 30 minutes [8]: 7.8%
- remaining amount after 30 minutes [10]: 86.36%
Structure (SMILES): CCCCCCCCCCCCn1cc(C(N)(CO)CO)nn1 [SCNPA101, 2-amino-2-(1-dodecyl-1H-1,2,3-triazol-4-yl)propane-1,3-diol, reference compound]
- activity and anxiety [4]: improved
- gene expression of inflammatory cytokines TNF-a, IL-1b, and IL-6 [6]: restored to a normal level
- activity of astrocytes [9]: significantly decreased

- brain distribution values [7]: 3.64
- metabolic stability (in words) [8]: high metabolic stability
- remaining amount after 30 minutes [10]: 95.66%
- bioavailability [13]: 50.3%
Structure (SMILES): CCCCCCCCCn1cc(C(N)(CO)CO)nn1 [SCNPA201, 2-amino-2-(1-nonanyl-1H-1,2,3-triazol-4-yl)propane-1,3-diol]
- Aβ40 deposition [11]: lowest
- Aβ42 deposition [11]: lowest
- protofibril Aβ deposition (Thioflavin S) [11]: lowest
- gene expression of inflammatory cytokines TNF-a, IL-1b, and IL-6 [6]: restored to a normal level
- effect of improving cognition [12]: more remarkable

- brain distribution values [7]: 1.41
- metabolic stability (in words) [8]: high metabolic stability
- remaining amount after 30 minutes [10]: 98.21%
- bioavailability [13]: 72.3%
Structure (SMILES): CCCCCCn1cc(C(N)(CO)CO)nn1 [SCNPA501, 2-amino-2-(1-hexyl-1H-1,2,3-triazol-4-yl)propane-1,3-diol]
